Data reported in patent publication US11352345B2, “Cyclohexyl acid pyrazole azoles as LPA antagonists” (BRISTOL-MYERS SQUIBB COMPANY, priority 2017, dated 2022).
pIC50: −log10 of the molar value. Structures can show the parent of a compound that is named as a salt.

Target: T1, human LPA1 (Homo sapiens, UniProt Q92633)
T1 construct: expressed in transfected cells; host or cells: Chinese hamster ovary (CHO) cells
Experiment: LPA1 functional antagonist assay (calcium flux)
Format: cell-based
Details: Chinese hamster ovary cells overexpressing human LPA1; calcium flux induced by 10 nM LPA; read-out: hLPA1 IC50
Procedure: The effectiveness of compounds of the present invention as LPA1 inhibitors can be determined in an LPA1 functional antagonist assay as follows:
Chinese hamster ovary cells overexpressing human LPA1 were plated overnight (15,000 cells/well) in poly-D-lysine coated 384-well microplates (Greiner bio-one, Cat #781946) in DMEM/F12 medium (Gibco, Cat #11039). Following overnight culture, cells were loaded with calcium indicator dye (AAT Bioquest Inc, Cat #34601) for 30 minutes at 37° C. The cells were then equilibrated to room temperature for 30 minutes before the assay. Test compounds solubilized in DMSO were transferred to 384 well non-binding surface plates (Corning, Cat #3575) using the Labcyte Echo acoustic dispense and diluted with assay buffer [1×HBSS with calcium/magnesium (Gibco Cat #14025-092), 20 mM HEPES (Gibco Cat #15630-080) and 0.1% fatty acid free BSA (Sigma Cat #A9205)] to a final concentration of 0.5% DMSO. Diluted compounds were added to the cells by FDSS6000 (Hamamatsu) at final concentrations ranging from 0.08 nM to 5 μM. and were then incubated for 20 min at room temperature at which time LPA (Avanti Polar Lipids Cat #857130C) was added at final concentrations of 10 nM to stimulate the cells.
The compound IC50 value was defined as the concentration of test compound which inhibited 50% of the calcium flux induced by LPA alone. IC50 values were determined by fitting data to a 4-parameter logistic equation (GraphPad Prism, San Diego Calif.).

T1 sequence (Q92633 whole entry): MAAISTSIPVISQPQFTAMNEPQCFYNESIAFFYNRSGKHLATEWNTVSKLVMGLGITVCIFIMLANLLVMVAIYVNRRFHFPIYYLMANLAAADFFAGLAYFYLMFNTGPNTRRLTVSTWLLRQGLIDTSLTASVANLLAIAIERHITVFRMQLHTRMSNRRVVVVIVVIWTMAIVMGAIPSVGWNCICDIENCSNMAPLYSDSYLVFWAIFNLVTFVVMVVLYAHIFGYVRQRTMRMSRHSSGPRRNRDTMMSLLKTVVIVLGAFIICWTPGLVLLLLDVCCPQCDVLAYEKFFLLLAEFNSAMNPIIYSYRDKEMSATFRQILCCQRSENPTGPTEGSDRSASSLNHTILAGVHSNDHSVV

Structure (SMILES)	pIC50
Cc1nc(-c2cnn(C)c2Nc2nc(C3CC3)ns2)ncc1O[C@H]1CCC[C@H](C(=O)O)C1 [Example 5]	6.47
CCCCc1cn(Cc2c(-c3ncc(O[C@H]4CCC[C@H](C(=O)O)C4)c(CC)n3)cnn2C)nn1 [Example 11]	6.40
Cc1nc(-c2cnn(C)c2CNc2nc(C(C)C)ns2)ncc1O[C@H]1CCC[C@H](C(=O)O)C1 [Example 2, (1S,3S)-3-((2-(5-(((3-isopropyl-1,2,4-thiadiazol-5-yl)amino)methyl)-1-methyl-1H-pyrazol-4-yl)-4-methylpyrimidin-5-yl)oxy)cyclohexane-1-carboxylic acid]	5.73
Cc1nc(-c2cnn(C)c2Cn2cc(CC3CC3)nn2)ncc1O[C@H]1CCC[C@H](C(=O)O)C1 [Example 9, (1S,3S)-3-((2-(5-((4-(cyclopropylmethyl)-1H-1,2,3-triazol-1-yl)methyl)-1-methyl-1H-pyrazol-4-yl)-4-methylpyrimidin-5-yl)oxy)cyclohexane-1-carboxylic acid]	6.20
Cc1nc(-c2cnn(C)c2CNc2ncn(-c3ccccc3)n2)ncc1O[C@H]1CCC[C@H](C(=O)O)C1 [Example 8]	7.04
Cc1nc(-c2cnn(C)c2CNc2cnn(-c3ccccc3)n2)ncc1O[C@H]1CCC[C@H](C(=O)O)C1 [Example 1, (1S,3S)-3-((4-methyl-2-(1-methyl-5-(((2-phenyl-2H-1,2,3-triazol-4-yl)amino)methyl)-1H-pyrazol-4-yl)pyrimidin-5-yl)oxy)cyclohexane-1-carboxylicacid]	7.46
CCc1nc(-c2cnn(C)c2Cn2cc(CC3CC3)nn2)ncc1O[C@H]1CCC[C@H](C(=O)O)C1 [Example 12]	6.64
CCCc1nsc(Nc2c(-c3ncc(O[C@H]4CCC[C@H](C(=O)O)C4)c(C)n3)cnn2C)n1 [Example 3, (1S,3S)-3-((4-methyl-2-(1-methyl-5-((3-propyl-1,2,4-thiadiazol-5-yl)amino)-1H-pyrazol-4-yl)pyrimidin-5-yl)oxy)cyclohexane-1-carboxylic acid]	6.36

Compounds with a higher pIC50, results first:

pIC50	Structure (SMILES)
8.05	Cc1nc(-c2cnn(C)c2CNc2noc(CC3CCC3)n2)ncc1O[C@H]1CCC[C@H](C(=O)O)C1 [Example 7]
7.51	CCCCc1nc(NCc2c(-c3ncc(O[C@H]4CCC[C@H](C(=O)O)C4)c(C)n3)cnn2C)no1 [Example 6]
7.59	CCc1nc(-c2cnn(C)c2Cn2cc(Cc3ccccc3)nn2)ncc1O[C@H]1CCC[C@H](C(=O)O)C1 [Example 10]
8.00	Cc1nc(-c2cnn(C)c2CNc2noc(CCC(C)C)n2)ncc1O[C@H]1CCC[C@H](C(=O)O)C1 [Example 4, (1S,3S)-3-((2-(5-(((5-isopentyl-1,2,4-oxadiazol-3-yl)amino)methyl)-1-methyl-1H-pyrazol-4-yl)-4-methylpyrimidin-5-yl)oxy)cyclohexane-1-carboxylic acid, bis TFA salt]
